Source: paper PMC12142043, “Cell-based high-content approach for SARS-CoV-2 neutralization identifies unique monoclonal antibodies and PI3K pathway inhibitors” (Frontiers in Cell and Developmental Biology, 2025)
Structures can show the parent of a compound that is named as a salt.

Test system: SARS-CoV-2 (USA-WA1/2020) in Calu-3 cells
Format: cell-based
Settings: Calu-3, 48 h; for dsRNA signal, AU High: high dose (10 µM); for dsRNA signal, AU Low: low dose (100 nM)

Structure (SMILES)	dsRNA signal, AU High [AU]	dsRNA signal, AU Low [AU]
NC(=O)c1ccc(-c2nc(-c3ccc4c(c3)OCCO4)c(-c3ccccn3)[nH]2)cc1 [D4476]	6178.6	10405.5
Nc1cccc(S(=O)(=O)N2CCCN(S(=O)(=O)c3ccc4c(c3)OCCO4)CC2)c1 [DASA-58]	7492.3	8577.3
NC(=O)c1ccccc1Nc1ccnc(Nc2cccc(O)c2)n1 [DB07268]	10652.5	37894.5
O=C(O)C(Cl)Cl [DCA]	2582.6	13605.1
CCn1c(=O)c(-c2cc(NC(=O)Nc3ccccc3)c(F)cc2Br)cc2cnc(NC)cc21 [DCC-2618]	31390.7	17341.0
O=C(NCCN1CCCC1)c1cc(-c2ccc(CN3CCOCC3)cc2)nc2ccc(F)cc12 [DDD107498]	38942.1	5409.3
CC(C)Oc1ccc(-c2cnc3c(-c4ccnc5ccccc45)cnn3c2)cc1 [DMH-1]	13545.0	45359.2
CC(C)(C)c1nc(-c2cccc(NS(=O)(=O)c3c(F)cccc3F)c2F)c(-c2ccnc(N)n2)s1.CS(=O)(=O)O [Dabrafenib Mesylate (GSK-2118436)]	27414.0	0.0
COc1cc2ncnc(Nc3ccc(F)c(Cl)c3)c2cc1NC(=O)/C=C/CN1CCCCC1 [Dacomitinib (PF299804, PF299)]	0.0	7030.9
CNC(=O)c1ccc(Nc2ncc(C(F)(F)F)c(NCc3nccnc3N(C)S(C)(=O)=O)n2)cc1 [Defactinib]	31683.7	56452.3
CCCCOc1cc(C(=O)NCCN(CC)CC)c2ccccc2n1.Cl [Dibucaine (Cinchocaine) HCl]	9319.1	11778.5
CCCC(=O)Nc1ncnc2c1ncn2[C@@H]1O[C@@H]2COP(=O)([O-])O[C@H]2[C@H]1OC(=O)CCC.[Na+] [Dibutyryl-cAMP, sodium salt]	10702.1	55803.3
O=C1c2c(O)cc(O)cc2O[C@H](c2cc(O)c(O)c(O)c2)[C@H]1O [Dihydromyricetin]	20863.8	12380.4
CCc1cnn2c(NCc3ccc[n+]([O-])c3)cc(N3CCCC[C@H]3CCO)nc12 [Dinaciclib (SCH727965)]	10476.7	0.0
C[C@@H]1CC[C@@]2(OC1)O[C@H]1C[C@H]3[C@@H]4CC=C5C[C@@H](O)CC[C@]5(C)[C@H]4CC[C@]3(C)[C@H]1[C@@H]2C [Diosgenin]	0.0	2764.9
Cl.Cl.c1cc(-c2cnn3cc(-c4ccc(OCCN5CCCCC5)cc4)cnc23)ccn1 [Dorsomorphin 2HCl]	1809.4	18817.3
c1cc(-c2cnn3cc(-c4ccc(OCCN5CCCCC5)cc4)cnc23)ccn1 [Dorsomorphin (Compound C)]	6395.6	1963.8
CN1CCN(c2ccc3nc(-c4c(N)c5c(F)cccc5[nH]c4=O)[nH]c3c2)CC1 [Dovitinib (TKI-258, CHIR-258)]	15765.0	183.2
CC(O)C(=O)O.CC(O)C(=O)O.CN1CCN(c2ccc3nc(-c4c(N)c5c(F)cccc5[nH]c4=O)[nH]c3c2)CC1 [Dovitinib Dilactic acid]	47107.5	17331.2

Structure (SMILES)	dsRNA signal, AU High [AU]	dsRNA signal, AU Low [AU]
O=C(Nc1nccs1)C(c1cc(F)ccc1O)N1Cc2ccccc2C1=O (stereo not drawn) [EAI045]	0.0	14269.6
O=c1cc(CN2CCOCC2)occ1OCCCCCSc1ccnc2cc(C(F)(F)F)ccc12 [EHT 1864]	22471.9	17099.7
CCn1c2ccccc2c2cc(Nc3ccnc(NCCCN4CCOCC4)n3)ccc21 [EHop-016]	0.0	44568.8
CCc1c(C(=O)NNC(=O)C(O)c2cc(F)cc(F)c2)ccc(O)c1C (stereo not drawn) [EMD638683]	288.1	20264.2
CN1CCC(COc2cnc(-c3cccc(Cn4nc(-c5cccc(C#N)c5)ccc4=O)c3)nc2)CC1 [EMD-1214063]	14120.6	47689.1
Cc1cccc(-c2[nH]c(CNc3ccccc3F)nc2-c2ccc3ncnn3c2)n1 [EW-7197]	168.7	7205.0
O=c1oc2c(O)c(O)cc3c(=O)oc4c(O)c(O)cc1c4c23 [Ellagic acid]	14274.7	14007.9
Cc1cc(O)c2c(c1)C(=O)c1cc(O)cc(O)c1C2=O [Emodin]	20341.5	11688.8
C#Cc1cccc(Nc2ncnc3cc(OCCOC)c(OCCOC)cc23)c1 [Erlotinib Hydrochloride]	3624.7	52457.7
C#Cc1cccc(Nc2ncnc3cc(OCCOC)c(OCCOC)cc23)c1 [Erlotinib]	7272.0	15317.7
CCOC(=O)c1cc(O)c(O)c(O)c1 [Ethyl gallate]	180.5	60976.1
Cc1ccc(-c2c(C(=O)CF)n(CCCO)c3ncnc(N)c23)cc1 [FMK]	36246.0	14082.6
Nc1[nH]nc2nnc(-c3c(-c4ccccc4)nn4ccccc34)cc12 [FR 180204]	10806.0	12597.7
CCn1c(=O)c(-c2ccc(-c3cncs3)cc2Cl)cc2cnc(Nc3ccc(N4CCN(C)CC4)cc3)nc21 [FRAX597]	1538.8	50796.9
CCCCCCCCc1ccc(CCC(N)(CO)CO)cc1 [Fingolimod (FTY720)]	0.0	13731.4
CN1CC[C@H](c2c(O)cc(O)c3c(=O)cc(-c4ccccc4Cl)oc23)[C@H](O)C1 [Flavopiridol]	411.3	2633.8
O=C(O)c1ccccc1Nc1cccc(C(F)(F)F)c1 [Flufenamic acid]	29762.4	15182.6
O=C(O)/C=C/C(=O)O [Fumalic acid]	4691.7	6874.3
O=C(NOCCO)c1ccc2cncn2c1Nc1ccc(I)cc1F [GDC-0623]	0.0	1908.1

Structure (SMILES)	dsRNA signal, AU High [AU]	dsRNA signal, AU Low [AU]
OCCn1cc(-c2ccc3c(c2)CC/C3=N\O)c(-c2ccncc2)n1 [GDC-0879]	7041.8	38492.2
CS(=O)(=O)N1CCN(Cc2cc3nc(-c4cccc5[nH]ncc45)nc(N4CCOCC4)c3s2)CC1.CS(=O)(=O)O.CS(=O)(=O)O [GDC-0941 dimethanesulfonate]	20950.7	35251.8
CS(=O)(=O)N1CCN(Cc2cc3nc(-c4cccc5[nH]ncc45)nc(N4CCOCC4)c3s2)CC1 [GDC-0941]	590.8	57346.3
Cn1nccc1Nc1nccc(-c2ccn([C@H](CO)c3ccc(Cl)c(F)c3)c(=O)c2)n1 [GDC-0994]	4912.8	7646.0
O=C(Nc1nc2cccc(-c3ccc(CN4CCS(=O)(=O)CC4)cc3)n2n1)C1CC1 [GLPG0634]	36.1	2690.2
CNc1nc(Nc2cnn([C@H]3CCN(C4COC4)C[C@@H]3F)c2Cl)ncc1C(F)(F)F [GNE-9605]	40803.1	41939.9
NC(=O)c1cccc(-c2cc(Nc3ccc(OC(F)(F)F)cc3)ncn2)c1 [GNF 2]	2578.1	60765.8
O=C(NCCO)c1cccc(-c2cc(Nc3ccc(OC(F)(F)F)cc3)ncn2)c1 [GNF 5]	498.5	65630.6
Cc1ccc(NC(=O)Nc2cc(C(F)(F)F)ccc2F)cc1Nc1ccc2c(c1)NC(=O)/C2=C\c1ccc[nH]1 [GNF-5837]	2750.0	23319.5
c1cn2cc(-c3ccc4cn[nH]c4c3)nc(Nc3ccc(N4CCOCC4)cc3)c2n1 [GS-9973]	32878.5	51541.3
CC1=C(C(=O)Nc2cc3cn[nH]c3cc2F)C(c2ccc(C(F)(F)F)cc2)CC(=O)N1 (stereo not drawn) [GSK429286A]	10329.9	34075.4
CCn1c(-c2nonc2N)nc2c(C#CC(C)(C)O)ncc(OC[C@H]3CCCNC3)c21 [GSK690693]	6007.3	39582.1
O=C1NC(=O)/C(=C/c2ccc3nccc(-c4ccncc4)c3c2)S1 [GSK1059615]	832.8	16639.6
Cn1cc(-c2ccc3c(c2)CCN3C(=O)Cc2cccc(C(F)(F)F)c2)c2c(N)ncnc21 [GSK2606414]	6871.8	28375.6
Cc1cccc(CC(=O)N2CCc3c2ccc(-c2cn(C)c4ncnc(N)c24)c3F)n1 [GSK2656157]	2371.9	33522.6
COc1ccc(COc2ccc(Cc3cnc(N)nc3N)cc2OC)cc1 [GW2580]	17974.9	13531.9
O=C1Nc2ccc(I)cc2/C1=C/c1cc(Br)c(O)c(Br)c1 [GW5074]	14683.4	20240.6
Cn1cc(/C=C2\C(=O)Nc3cccnc32)c2ccccc21 [GW441756]	33214.4	18067.5
O=C(NC1CCOCC1)c1ccc(-c2cc(-c3c[nH]nc3-c3ccccn3)ccn2)cc1 [GW788388]	8820.5	0.0
